Patent publication US10683292B2, “Purine and 3-deazapurine analogues as choline kinase inhibitors” (NERVIANO MEDICAL SCIENCES S.R.L., priority 2016, dated 2020)

Columns and labels:
[1] = test system: MDA-MB-468 breast cancer cell line; assay: Phosphocholine determination assay (mechanism of action in cells), cell extracts; format: cell-based; details: 24 h
Method: Phosphocholine Determination Assay (Mechanism of Action in Cells)
After 24 h, fresh medium and a compound of general formula (I) were added for further 24 h. At the end of the treatment, the cells were trypsinised, counted and the diameter was determined using a Coulter Counter (Multisizer 3, Beckman). […] Then, 0.7 mL ice-cold absolut EtOH were added (final ratio EtOH/H2O 70:30, v/v). After 24 h at −20° C. the samples were sonicated and centrifuged at 14,000×g for 30 minutes.
Phosphocholine concentration levels were assessed in the supernatants using an Ultra High Pressure Liquid Chromatography system (UPLC®, Waters) coupled with a triple quadrupoles mass spectrometer (TQD, Waters) operating in single reaction monitoring mode (SRM). Analyses were performed using Acquity HSS T3 column 2.1×50 mm column, 1.8 μm particle size. […] Waters TQD triple quad mass spectrometer was equipped with an electrospray ion source operating in the positive mode. Source parameters were set as follows: desolvation gas flow 1000 L/h, cone gas flow 50 L/h; collision gas flow 0.2 mL/min; source temperature 130° C.; desolvation temperature 450° C. Dimethyl glicine (DMG) was added to samples as internal standard at 100 μM final concentration. […] The concentration of PCho in the sample was normalized to the total volume of cells (number cells×volume of single cell considered like a sphere).

Δ49N-hChoKα = biological target: T1, Δ49N-hChoKα (Homo sapiens, UniProt P35790); assay: Biochemical kinase inhibition assay (Kinase-Glo Luminescent Kinase Assay) on Δ49N-hChoKα; details: ATP 5 μM, choline 5 μM, 60 minutes at rt; read-out: IC50 ChoKα
T1 construct: cDNA fragment 362-1534, corresponding to aminoacids 50-457; GST (N, cleaved yes); Prescission Protease recognition site (N, cleaved yes); made in house; host or cells: Escherichia coli BL21pLysS (DE3)
T1 sequence (P35790 50-457, stated change not applied): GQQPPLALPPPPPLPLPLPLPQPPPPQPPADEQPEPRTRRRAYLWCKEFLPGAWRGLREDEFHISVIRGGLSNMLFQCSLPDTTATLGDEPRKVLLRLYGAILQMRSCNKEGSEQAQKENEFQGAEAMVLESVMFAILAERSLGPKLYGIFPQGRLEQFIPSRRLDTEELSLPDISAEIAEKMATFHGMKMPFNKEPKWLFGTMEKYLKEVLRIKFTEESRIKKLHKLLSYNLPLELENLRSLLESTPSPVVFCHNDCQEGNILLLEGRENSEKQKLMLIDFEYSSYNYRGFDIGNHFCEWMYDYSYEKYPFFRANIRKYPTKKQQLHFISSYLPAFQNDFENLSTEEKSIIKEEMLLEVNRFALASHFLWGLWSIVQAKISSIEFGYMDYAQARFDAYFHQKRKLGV

[2] = test system: MDA-MB-468 breast cancer cell line; assay: Phosphocholine determination in cell medium culture (cell supernatants); format: cell-based; details: compound 2 μM
Method: For the determination of phosphocholine in cells, extracts were prepared according to ref. Cancer Res., 2005, 65, 9369-9376 with some modifications. MDA-MB-468 breast cancer cell line was plated at 1×10^6 cells in 10 cm petri dish culture in RPMI, 10% FCS culture medium. After 24 h, fresh medium and a compound of general formula (I) were added for further 24 h. At the end of the treatment, the cells were trypsinised, counted and the diameter was determined using a Coulter Counter (Multisizer 3, Beckman). Cells were washed twice with ice-cold physiologic saline solution and 2×10^6 cells resuspended in 0.3 mL ice-cold twice-distilled water. […]
Phosphocholine concentration levels were assessed in the supernatants using an Ultra High Pressure Liquid Chromatography system (UPLC®, Waters) coupled with a triple quadrupoles mass spectrometer (TQD, Waters) operating in single reaction monitoring mode (SRM). […] The monitored transitions were m/z 184.00 to 85.7 (collision energy 24 eV) for phosphocholine and m/z 103.0 to 57.5 (collision energy 13 eV) for DMG. […]
For the determination of phosphocholine in cell medium culture, cell culture supernatants (500 μL) were denatured by adding 100 μL of trichloroacetic acid (TCA) 1M containing dimethyl glicine (DMG) (100 μM), used as internal standard. […] The supernatants were subsequently analyzed for phosphocholine determination.

hChoKβ FL = biological target: T2, hChoKβ FL (Homo sapiens, UniProt Q9Y259); assay: Biochemical kinase inhibition assay (Kinase-Glo Luminescent Kinase Assay) on hChoKβ FL; details: ATP 5 μM, choline 20 μM, 60 minutes at rt; read-out: IC50 ChoKβ
T2 construct: hChoKβ full length (FL), corresponding to aminoacids 2-395; GST (N, cleaved yes); Prescission Protease recognition site (N, cleaved yes); made in house; host or cells: Escherichia coli BL21pLysS (DE3)
T2 sequence (Q9Y259 2-395): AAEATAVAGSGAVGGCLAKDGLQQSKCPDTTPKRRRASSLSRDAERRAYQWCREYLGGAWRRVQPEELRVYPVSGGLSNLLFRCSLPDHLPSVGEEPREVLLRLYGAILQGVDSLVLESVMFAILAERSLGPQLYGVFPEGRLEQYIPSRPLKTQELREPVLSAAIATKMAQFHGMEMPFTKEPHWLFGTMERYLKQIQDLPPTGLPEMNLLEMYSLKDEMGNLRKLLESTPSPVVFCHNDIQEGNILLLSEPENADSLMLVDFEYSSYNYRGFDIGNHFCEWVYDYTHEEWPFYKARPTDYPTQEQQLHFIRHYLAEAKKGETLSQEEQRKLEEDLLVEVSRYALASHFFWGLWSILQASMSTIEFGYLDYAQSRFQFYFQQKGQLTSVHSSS
Method: The biochemical activity of compounds against Δ49N-ChoKα and ChoKβ FL were determined using the Kinase-Glo™ Luminescent Kinase Assay (Promega cat. V6711).
Compounds were 3-fold serially diluted from 10 to 0.0005 μM, then incubated for 60 minutes at rt in the presence of ATP 5 μM, choline (5 μM for ChoKα and 20 μM for ChoKβ) and enzyme in a final volume of 19 μL of kinase buffer (50 mM Hepes pH 7.5, 10 mM MgCl2, 1 mM DTT, 3 μM Na3VO4 and 0.2 mg/mL BSA). The final concentration of DMSO was 1%.
At the end of the incubation, an amount of 19 μL of KinaseGlo Reagent was added to each well to stop the reaction and after 30 minutes the luminescence signal was measured using ViewLux reader (Perkin Elmer).
The data per each molecule are analyzed by an internally customized version of the SW package “Assay Explorer” which provides sigmoidal fittings of the ten-dilution curves for IC50 determination using a 4 parameter logistic equation: y=bottom+(top−bottom)/(1+10^((log IC50−x)*slope)) where x is the logarithm of the inhibitor concentration, y is the response; y starts at bottom and goes to top with a sigmoid shape.

IC50 (Δ49N-hChoKα) [nM] | IC50 (hChoKβ FL) [nM] | Compound | [Phosphocholine] in MDA-MB-468 cell extracts ([1]; compound 0.08 μM) [mM] | [Phosphocholine] in MDA-MB-468 cell extracts ([1]; compound 0.4 μM) [mM] | [Phosphocholine] in MDA-MB-468 cell extracts ([1]; compound 2 μM) [mM] | inhibition at 0.4 µM ([1]; Homo sapiens, MDA-MB-468, compound 0.4 μM, vs untreated control) [%] | inhibition at 2 µM ([1]; Homo sapiens, MDA-MB-468, compound 2 μM, vs untreated control) [%] | inhibition at 2 µM ([2]; Homo sapiens, MDA-MB-468, vs untreated control) [%] | [Phosphocholine] in MDA-MB-468 cell supernatants [2] [µM]
– | – | CN1CCc2nc(NC(=O)[C@H]3CC[C@@H](n4cnc5c(N)nc(F)nc54)CC3)sc2C1 [cpd 179, cis-4-(6-amino-2-fluoro-9H-purin-9-yl)-N-(5-methyl-4,5,6,7-tetrahydro[1,3]thiazolo[5,4-c]pyridin-2-yl)cyclohexanecarboxamide] | 6.40 | 3.27 | 0.69 | – | – | – | –
34 | 4690 | Nc1nc(Cl)nc2c1ncn2[C@H]1CC[C@@H](C(=O)Nc2ncc(Cl)s2)CC1 [cpd 114, cis-4-(6-amino-2-chloro-9H-purin-9-yl)-N-(5-chloro-1,3-thiazol-2-yl)cyclohexanecarboxamide] | – | 5.21 | 1.98 | 37 | 76 | 66 | 2.50
